Experiments:
Type in all cases: in vivo
[1] = system: Beet Armyworm (BAW) (Spodoptera exigua); assay: Bioassay on beet armyworm (BAW), 128-well diet tray assay; settings: Beet armyworm, 50 μg/cm^2; for pest or weed control at 50 µg/cm2, 50 µg/cm2: Spodoptera exigua, read-out: % Mortality BAW 50 μg/cm^2
Outline: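 Second-instar Spodoptera exigua larvae, one to five per well, on artificial diet treated with 50 μg/cm^2 compound in 90:10 acetone-water and dried, eight wells per compound. Held at 25 °C, 14:10 light-dark for five to seven days; percent mortality averaged over wells.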

[2] = system: Corn Earworm (CEW) (Helicoverpa zea); assay: Bioassay on corn earworm (CEW), 128-well diet tray assay; settings: Corn earworm, 50 μg/cm^2; for pest or weed control at 50 µg/cm2, 50 µg/cm2: Helicoverpa zea, read-out: % Mortality CEW 50 μg/cm^2
Outline: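 Second-instar Helicoverpa zea larvae (one to five per well) placed on artificial diet treated with 50 μg/cm^2 compound in 90:10 acetone-water, dried, eight wells per compound. Held at 25 °C, 14:10 light-dark, five to seven days; percent mortality averaged over wells.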

[3] = system: Green Peach Aphid (GPA) (Myzus persicae); assay: Bioassay on green peach aphid (GPA), foliar spray on cabbage seedlings; settings: 72 h, read-out: % Mortality GPA 200 ppm
Method: Bioassays on Green Peach Aphid (“GPA”) (Myzus persicae)
Certain molecules disclosed in this document were tested against GPA using procedures described in the following example. In the reporting of the results, the “GPA Rating Table” was used (See Table Section).
Cabbage seedlings grown in 3-inch pots, with 2-3 small (3-5 cm) true leaves, were used as test substrate. The seedlings were infested with 20-50 GPA (wingless adult and nymph stages) one day prior to chemical application. Four pots with individual seedlings were used for each treatment. Test compounds (2 mg) were dissolved in 2 mL of acetone/methanol (1:1) solvent, forming stock solutions of 1000 ppm test compound. The stock solutions were diluted 5× with 0.025% Tween 20 in H2O to obtain the solution at 200 ppm test compound. A hand-held aspirator-type sprayer was used for spraying a solution to both sides of […] leaves until runoff. Reference plants (solvent check) were sprayed with the diluent only containing 20% by volume of acetone/methanol (1:1) solvent. Treated plants were held in a holding room for three days at approximately 25° C. and ambient relative humidity (RH) prior to grading. Evaluation was conducted by counting the number of live aphids per plant under a microscope. Percent Control was measured by using Abbott's correction formula (W. S. Abbott, “A Method of Computing the Effectiveness of an Insecticide” J. Econ. Entomol. 18 (1925), pp. 265-267) as follows. Corrected%Control=100*(X−Y)/X • where • X=No. of live aphids on solvent check plants and • Y=No. of live aphids on treated plants
The results are indicated in the table entitled “Table 5: Biological Results” (See Table Section).

| SMILES | pest or weed control at 50 µg/cm2, 50 µg/cm2 [1] [%] | pest or weed control at 50 µg/cm2, 50 µg/cm2 [2] [%] | pest or weed control at 200 ppm [3] [%] | % Mortality BAW 50 μg/cm^2 [1] | % Mortality CEW 50 μg/cm^2 [2] |
| --- | --- | --- | --- | --- | --- |
| CCc1ccccc1N1CCS/C1=N\N=C\c1ccc(-c2ncn(-c3ccc(OC(F)(F)F)cc3)n2)cc1 [Compound 133C] | 50 to 100 | 50 to 100 | 0 to 80 |  |  |
| FC(F)(F)Oc1ccc(-n2cnc(-c3ccc(/C=N/N=C4\SCCCN4c4c(Cl)cccc4C(F)(F)F)cc3)n2)cc1 [Compound 190C] | 50 to 100 | 50 to 100 | 0 to 80 |  |  |
| Cc1cccc(C)c1/N=C(/N/N=C/c1ccc(-c2ncn(-c3ccc(OC(F)(F)F)cc3)n2)cc1)SCOC(=O)CNC(=O)OC(C)(C)C [Compound 30C] | 50 to 100 | 50 to 100 | 0 to 80 |  |  |
| COc1cc(C)c(/N=C(/N/N=C/c2ccc(-c3ncn(-c4ccc(OC(F)(F)F)cc4)n3)cc2)SCOC(=O)C(C)(C)C)c(C)c1 [Compound 40C] | 50 to 100 | 50 to 100 | 0 to 80 |  |  |
| Cc1cccc(C)c1-n1c(-c2ccc(OC(F)(F)F)cc2)cs/c1=N\N=C\c1ccc(-c2ncn(-c3ccc(OC(F)(F)F)cc3)n2)cc1 [Compound 78C] | 50 to 100 | 50 to 100 | 0 to 80 |  |  |
| CC(=O)OCS/C(=N\c1c(C)cccc1C)N/N=C/c1ccc(-c2ncn(-c3ccc(OC(F)(F)F)cc3)n2)cc1 [Compound 31C] | 50 to 100 | 50 to 100 | 0 to 80 |  |  |
| Cc1cccc(C)c1-n1c(-c2ccc(C(=O)O)cc2)cs/c1=N\N=C\c1ccc(-c2ncn(-c3ccc(OC(F)(F)F)cc3)n2)cc1 [Compound 77C] | 50 to 100 | 50 to 100 | 0 to 80 |  |  |
| Cc1cccc(C)c1/N=C(/N/N=C/c1ccc(-c2ncn(-c3ccc(OC(F)(F)F)cc3)n2)cc1)SCc1c(F)cccc1F [Compound 5C] | 50 to 100 | 50 to 100 | 0 to 80 |  |  |
| O=C1CS/C(=N\N=C\c2ccc(-c3ncn(-c4ccc(OC(F)(F)F)cc4)n3)cc2)N1c1ccccc1C1CC1 [Compound 112C] | 50 to 100 | 50 to 100 | 0 to 80 |  |  |
| O=C1CS/C(=N\N=C\c2ccc(-c3ncn(-c4ccc(OC(F)(F)F)cc4)n3)cc2)N1c1ccccc1-c1ccccc1 [Compound 96C] | 50 to 100 | 50 to 100 | 0 to 80 |  |  |
| CCOCC(=O)OCS/C(=N\c1c(C)cccc1C)N/N=C/c1ccc(-c2ncn(-c3ccc(OC(F)(F)F)cc3)n2)cc1 [Compound 22C] | 50 to 100 | 50 to 100 | 0 to 80 |  |  |
| CCc1cccc(C)c1N1C(=O)CS/C1=N\N=C\c1ccc(-c2ncn(-c3ccc(OC(F)(F)F)cc3)n2)cc1 [Compound 111C] | 50 to 100 | 50 to 100 | 0 to 80 |  |  |
| Cc1cccc(C)c1/N=C(/N/N=C/c1ccc(-c2ncn(-c3ccc(OC(F)(F)F)cc3)n2)cc1)SCc1ccc(S(C)(=O)=O)cc1 [Compound 17C] | 50 to 100 | 50 to 100 | 0 to 80 |  |  |
| COc1cc(C)c(/N=C(/N/N=C/c2ccc(-c3ncn(-c4ccc(OC(F)(F)F)cc4)n3)cc2)SCOC(=O)C(C)C)c(C)c1 [Compound 27C] | 50 to 100 | 50 to 100 | 0 to 80 |  |  |
| COc1cc(C)c(/N=C(/N/N=C/c2ccc(-c3ncn(-c4ccc(OC(F)(F)F)cc4)n3)cc2)SCOC(=O)C2CCCC2)c(C)c1 [Compound 43C] | 50 to 100 | 50 to 100 | 0 to 80 |  |  |
| CC1S/C(=N\N=C\c2ccc(-c3ncn(-c4ccc(OC(F)(F)F)cc4)n3)cc2)N(c2ccccc2C(C)C)C1=O (stereo not drawn) [Compound 88C] | 50 to 100 | 50 to 100 | 0 to 80 |  |  |
| Cc1cccc(Cl)c1N1/C(=N/N=C/c2ccc(-c3ncn(-c4ccc(OC(F)(F)F)cc4)n3)cc2)SCC1C (stereo not drawn) [Compound 158C] | 50 to 100 | 50 to 100 | 0 to 80 |  |  |

| SMILES | pest or weed control at 50 µg/cm2, 50 µg/cm2 [1] [%] | pest or weed control at 50 µg/cm2, 50 µg/cm2 [2] [%] | pest or weed control at 200 ppm [3] [%] | % Mortality BAW 50 μg/cm^2 [1] | % Mortality CEW 50 μg/cm^2 [2] |
| --- | --- | --- | --- | --- | --- |
| Cc1cccc(C)c1/N=C(/N/N=C/c1ccc(-c2ncn(-c3ccc(OC(F)(F)F)cc3)n2)cc1)SCC(=O)N1CCN(C(=O)OC(C)(C)C)CC1 [Compound 57C] | 50 to 100 | 50 to 100 | 0 to 80 |  |  |
| Cc1cccc(C)c1/N=C(/N/N=C/c1ccc(-c2ncn(-c3ccc(OC(F)(F)F)cc3)n2)cc1)SCC(=O)O [Compound 47C] | 50 to 100 | 50 to 100 | 0 to 80 |  |  |
| CC1CS/C(=N\N=C\c2ccc(-c3ncn(-c4ccc(OC(F)(F)F)cc4)n3)cc2)N1c1c(Cl)cccc1Cl (stereo not drawn) [Compound 157C] | 50 to 100 | 50 to 100 | 0 to 80 |  |  |
| CCc1cccc(C)c1N1/C(=N/N=C/c2ccc(-c3ncn(-c4ccc(OC(F)(F)F)cc4)n3)cc2)SCC1C (stereo not drawn) [Compound 156C] | 50 to 100 | 50 to 100 | 0 to 80 |  |  |
| Cc1cccc(C)c1/N=C(/N/N=C/c1ccc(-c2ncn(-c3ccc(OC(F)(F)F)cc3)n2)cc1)SCc1cccc2nsnc12 [Compound 14C] | 50 to 100 | 50 to 100 | 0 to 80 |  |  |
| Fc1cccc(F)c1N1CCCS/C1=N\N=C\c1ccc(-c2ncn(-c3ccc(OC(F)(F)F)cc3)n2)cc1 [Compound 189C] | 50 to 100 | 50 to 100 | 0 to 80 |  |  |
| COc1cc(C)c(/N=C(/N/N=C/c2ccc(-c3ncn(-c4ccc(OC(F)(F)F)cc4)n3)cc2)SCC(=O)N2CCNCC2)c(C)c1 [Compound 65C] | 50 to 100 | 50 to 100 | 0 to 80 |  |  |
| FC(F)(F)Oc1ccc(-n2cnc(-c3ccc(/C=N/N=C4\SCCCN4c4ccccc4-c4ccccc4)cc3)n2)cc1 [Compound 194C] | 50 to 100 | 50 to 100 | 0 to 80 |  |  |
| COC(=O)c1ccc(CS/C(=N\c2c(C)cccc2C)N/N=C/c2ccc(-c3ncn(-c4ccc(OC(F)(F)F)cc4)n3)cc2)cc1 [Compound 12C] | 50 to 100 | 50 to 100 | 0 to 80 |  |  |
| Cc1cccc(Cl)c1-n1c(C)cs/c1=N\N=C\c1ccc(-c2ncn(-c3ccc(OC(F)(F)F)cc3)n2)cc1 [Compound 174C] | 50 to 100 | 50 to 100 | 0 to 80 |  |  |
| CCc1cccc(C)c1N1/C(=N/N=C/c2ccc(-c3ncn(-c4ccc(OC(F)(F)F)cc4)n3)cc2)SCCC1C (stereo not drawn) [Compound 213C] | 50 to 100 | 50 to 100 | 0 to 80 |  |  |
| COc1cccc(N2CCS/C2=N\N=C\c2ccc(-c3ncn(-c4ccc(OC(F)(F)F)cc4)n3)cc2)c1 [Compound 147C] | 50 to 100 | 50 to 100 | 0 to 80 |  |  |
| Cc1cccc(C)c1N1C(=O)CS/C1=N\N=C\c1ccc(-c2ncn(-c3ccc(OC(F)(F)F)cc3)n2)cc1 [Compound 72C] |  |  | 0 to 80 | A (50-100) | A (50-100) |
| Cc1cc(C)c(N2CCS/C2=N\N=C\c2ccc(-c3ncn(-c4ccc(OC(F)(F)F)cc4)n3)cc2)c(C)c1 [Compound 139C] | 50 to 100 | 50 to 100 | 0 to 80 |  |  |
| COc1cc(C)c(N2CCS/C2=N\N=C\c2ccc(-c3ncn(-c4ccc(OC(F)(F)F)cc4)n3)cc2)c(C)c1 [Compound 138C] | 50 to 100 | 50 to 100 | 0 to 80 |  |  |
| Cc1cccc(C)c1N1CCCS/C1=N\N=C\c1ccc(-c2ncn(-c3ccc(OC(F)(F)F)cc3)n2)cc1 [Compound 182C] | 50 to 100 | 50 to 100 | 0 to 80 |  |  |

From patent publication US9018388B2, “Pesticidal compositions and processes related thereto” (Dow AgroSciences LLC, priority 2012, dated 2015)
